Reference: ChEMBL document CHEMBL3885861, “Open TG-GATES”

Species: Rattus norvegicus
Experiment: Open TG-GATES - Regimen: Daily Repeat
Assay type: toxicity, organism-based, Sprague-Dawley
Parameters: regimen Daily Repeat, gender Male, age 6 weeks
Settings: in vivo, po, 30 mg/kg, route gavage, dose level Middle; for APTT / Bas / Eos / Fbg / Hb / Ht / Lym / MCH / MCHC / MCV / Mono / Neu / PT / Plat / RBC / Ret / WBC: tissue Blood; for KIDNEY_L / KIDNEY_R / KIDNEY_TOTAL: tissue Kidney; for LIVER: tissue Liver; for A/G / ALP / ALT / AST / BUN / CRE / Ca / Cl / DBIL / GLC / IP / K / LDH / Na / PL / RALB / TBIL / TC / TG / TP / gamma-GTP: tissue Plasma

Nc1ccc(Cc2ccc(N)cc2)cc1
TERMINAL_BW (72 h, time 3 day): 240.8 g | APTT (72 h, time 3 day): 13.8 s | Bas (72 h, time 3 day): 0% | Eos (72 h, time 3 day): 1% | Fbg (72 h, time 3 day): 295.8 mg/dL | Hb (72 h, time 3 day): 13.3 g/dL | Ht (72 h, time 3 day): 39.3% | Lym (72 h, time 3 day): 72.6% | MCH (72 h, time 3 day): 20.5 pg | MCHC (72 h, time 3 day): 33.8% | MCV (72 h, time 3 day): 60.6 fL | Mono (72 h, time 3 day): 2.6% | Neu (72 h, time 3 day): 23% | PT (72 h, time 3 day): 11.4 s | Plat (72 h, time 3 day): 133.5 x10_4/uL | RBC (72 h, time 3 day): 649.4 x10_4/ul | Ret (72 h, time 3 day): 5.6% | WBC (72 h, time 3 day): 112 x10_2/uL | KIDNEY_L (72 h, time 3 day): 1 g | KIDNEY_R (72 h, time 3 day): 1 g | KIDNEY_TOTAL (72 h, time 3 day): 2 g | LIVER (72 h, time 3 day): 12.3 g | A/G (72 h, time 3 day): 0.8 | ALP (72 h, time 3 day): 1785.8 IU/L | ALT (72 h, time 3 day): 59.4 IU/L | AST (72 h, time 3 day): 104 IU/L | BUN (72 h, time 3 day): 14.6 mg/dL | CRE (72 h, time 3 day): 0.2 mg/dL | Ca (72 h, time 3 day): 11.1 mg/dL | Cl (72 h, time 3 day): 105.6 meq/L | DBIL (72 h, time 3 day): 0.022 mg/dL | GLC (72 h, time 3 day): 159.2 mg/dL | IP (72 h, time 3 day): 7.5 mg/dL | K (72 h, time 3 day): 4.2 meq/L | LDH (72 h, time 3 day): 89.2 IU/L | Na (72 h, time 3 day): 143.4 meq/L | PL (72 h, time 3 day): 160 mg/dL | RALB (72 h, time 3 day): 2.6 g/dL | TBIL (72 h, time 3 day): 0.05 mg/dL | TC (72 h, time 3 day): 95.8 mg/dL | TG (72 h, time 3 day): 83.4 mg/dL | TP (72 h, time 3 day): 5.8 g/dL | gamma-GTP (72 h, time 3 day): 2 IU/L | TERMINAL_BW ([…], time 7 day): 277.9 g | TERMINAL_BW ([…], time 14 day): 333.9 g | TERMINAL_BW ([…], time 28 day): 429.1 g | APTT ([…], time 7 day): 14.2 s | Bas ([…], time 7 day): 0.2% | Eos ([…], time 7 day): 0.8% | Fbg ([…], time 7 day): 286 mg/dL | Hb ([…], time 7 day): 13.7 g/dL | Ht ([…], time 7 day): 39.1% | Lym ([…], time 7 day): 71.6% | MCH ([…], time 7 day): 20.6 pg | MCHC ([…], time 7 day): 34.9% | MCV ([…], time 7 day): 59.1 fL | Mono ([…], time 7 day): 2.8% | Neu ([…], time 7 day): 23.8% | PT ([…], time 7 day): 11.4 s | Plat ([…], time 7 day): 147.7 x10_4/uL | RBC ([…], time 7 day): 663 x10_4/ul | Ret ([…], time 7 day): 5.2% | WBC ([…], time 7 day): 101.6 x10_2/uL | APTT ([…], time 14 day): 15.3 s | Bas ([…], time 14 day): 0.2% | Eos ([…], time 14 day): 0.6% | Fbg ([…], time 14 day): 273.6 mg/dL | Hb ([…], time 14 day): 13.7 g/dL | Ht ([…], time 14 day): 39.6% | Lym ([…], time 14 day): 75% | MCH ([…], time 14 day): 20.1 pg | MCHC ([…], time 14 day): 34.7% | MCV ([…], time 14 day): 57.9 fL | Mono ([…], time 14 day): 2.2% | Neu ([…], time 14 day): 21.2% | PT ([…], time 14 day): 11.8 s | Plat ([…], time 14 day): 141.9 x10_4/uL | RBC ([…], time 14 day): 684.8 x10_4/ul | Ret ([…], time 14 day): 4.6% | WBC ([…], time 14 day): 128.9 x10_2/uL | APTT ([…], time 28 day): 17.1 s | Bas ([…], time 28 day): 0.8% | Eos ([…], time 28 day): 1% | Fbg ([…], time 28 day): 273.4 mg/dL | Hb ([…], time 28 day): 14.9 g/dL | Ht ([…], time 28 day): 41.7% | Lym ([…], time 28 day): 76.8% | MCH ([…], time 28 day): 19.8 pg | MCHC ([…], time 28 day): 35.7% | MCV ([…], time 28 day): 55.5 fL | Mono ([…], time 28 day): 2.2% | Neu ([…], time 28 day): 19% | PT ([…], time 28 day): 11.9 s | Plat ([…], time 28 day): 109.8 x10_4/uL | RBC ([…], time 28 day): 752 x10_4/ul | Ret ([…], time 28 day): 2.7% | WBC ([…], time 28 day): 131.8 x10_2/uL | KIDNEY_L ([…], time 7 day): 1.1 g | KIDNEY_R ([…], time 7 day): 1.1 g | KIDNEY_TOTAL ([…], time 7 day): 2.2 g | KIDNEY_L ([…], time 14 day): 1.2 g | KIDNEY_R ([…], time 14 day): 1.2 g | KIDNEY_TOTAL ([…], time 14 day): 2.4 g | KIDNEY_L ([…], time 28 day): 1.4 g | KIDNEY_R ([…], time 28 day): 1.4 g | KIDNEY_TOTAL ([…], time 28 day): 2.9 g | LIVER ([…], time 7 day): 13.2 g | LIVER ([…], time 14 day): 15.2 g | LIVER ([…], time 28 day): 19.2 g | A/G ([…], time 7 day): 0.8 | ALP ([…], time 7 day): 1631.6 IU/L | ALT ([…], time 7 day): 37 IU/L | AST ([…], time 7 day): 68 IU/L | BUN ([…], time 7 day): 17.4 mg/dL | CRE ([…], time 7 day): 0.2 mg/dL | Ca ([…], time 7 day): 11.2 mg/dL | Cl ([…], time 7 day): 105.2 meq/L | DBIL ([…], time 7 day): 0.026 mg/dL | GLC ([…], time 7 day): 173.6 mg/dL | IP ([…], time 7 day): 7.4 mg/dL | K ([…], time 7 day): 4.1 meq/L | LDH ([…], time 7 day): 85.2 IU/L | Na ([…], time 7 day): 143 meq/L | PL ([…], time 7 day): 145 mg/dL | RALB ([…], time 7 day): 2.7 g/dL | TBIL ([…], time 7 day): 0.064 mg/dL | TC ([…], time 7 day): 81 mg/dL | TG ([…], time 7 day): 125.2 mg/dL | TP ([…], time 7 day): 6 g/dL | gamma-GTP ([…], time 7 day): 1.2 IU/L | A/G ([…], time 14 day): 0.8 | ALP ([…], time 14 day): 1617.2 IU/L | ALT ([…], time 14 day): 38.4 IU/L | AST ([…], time 14 day): 66.4 IU/L | BUN ([…], time 14 day): 15.6 mg/dL | CRE ([…], time 14 day): 0.2 mg/dL | Ca ([…], time 14 day): 10.9 mg/dL | Cl ([…], time 14 day): 105 meq/L | DBIL ([…], time 14 day): 0.016 mg/dL | GLC ([…], time 14 day): 190.6 mg/dL | IP ([…], time 14 day): 6.8 mg/dL | K ([…], time 14 day): 3.7 meq/L | LDH ([…], time 14 day): 71.8 IU/L | Na ([…], time 14 day): 143.2 meq/L | PL ([…], time 14 day): 141.2 mg/dL | RALB ([…], time 14 day): 2.6 g/dL | TBIL ([…], time 14 day): 0.054 mg/dL | TC ([…], time 14 day): 72.8 mg/dL | TG ([…], time 14 day): 96.8 mg/dL | TP ([…], time 14 day): 6.1 g/dL | gamma-GTP ([…], time 14 day): 1 IU/L | A/G ([…], time 28 day): 0.7 | ALP ([…], time 28 day): 1167.6 IU/L | ALT ([…], time 28 day): 38.6 IU/L | AST ([…], time 28 day): 66.2 IU/L | BUN ([…], time 28 day): 15.4 mg/dL | CRE ([…], time 28 day): 0.2 mg/dL | Ca ([…], time 28 day): 11.1 mg/dL | Cl ([…], time 28 day): 104.8 meq/L | DBIL ([…], time 28 day): 0.024 mg/dL | GLC ([…], time 28 day): 178.6 mg/dL | IP ([…], time 28 day): 6.1 mg/dL | K ([…], time 28 day): 4 meq/L | LDH ([…], time 28 day): 74.6 IU/L | Na ([…], time 28 day): 145.2 meq/L | PL ([…], time 28 day): 141.6 mg/dL | RALB ([…], time 28 day): 2.6 g/dL | TBIL ([…], time 28 day): 0.062 mg/dL | TC ([…], time 28 day): 73.6 mg/dL | TG ([…], time 28 day): 110.4 mg/dL | TP ([…], time 28 day): 6.4 g/dL | gamma-GTP ([…], time 28 day): 1 IU/L
